{
  "source": "paper PMC6901109",
  "about": "(Bioorganic & medicinal chemistry letters, 2019)",
  "key": {"[1]": {"assay": "HLM half-life", "format": "in vitro ADME", "details": "human, liver microsomes"}, "[2]": {"system": "Cryptococcus spp.", "assay": "Antifungal activity against Cryptococcus spp.", "format": "cell-based"}, "[3]": {"system": "HepG2", "assay": "HepG2 viability", "format": "cell-based", "details": "at a concentration of 3 μM"}, "[4]": {"target": "T1, PigW (Homo sapiens, UniProt Q7Z7B1)", "T1 sequence (Q7Z7B1 1-504)": "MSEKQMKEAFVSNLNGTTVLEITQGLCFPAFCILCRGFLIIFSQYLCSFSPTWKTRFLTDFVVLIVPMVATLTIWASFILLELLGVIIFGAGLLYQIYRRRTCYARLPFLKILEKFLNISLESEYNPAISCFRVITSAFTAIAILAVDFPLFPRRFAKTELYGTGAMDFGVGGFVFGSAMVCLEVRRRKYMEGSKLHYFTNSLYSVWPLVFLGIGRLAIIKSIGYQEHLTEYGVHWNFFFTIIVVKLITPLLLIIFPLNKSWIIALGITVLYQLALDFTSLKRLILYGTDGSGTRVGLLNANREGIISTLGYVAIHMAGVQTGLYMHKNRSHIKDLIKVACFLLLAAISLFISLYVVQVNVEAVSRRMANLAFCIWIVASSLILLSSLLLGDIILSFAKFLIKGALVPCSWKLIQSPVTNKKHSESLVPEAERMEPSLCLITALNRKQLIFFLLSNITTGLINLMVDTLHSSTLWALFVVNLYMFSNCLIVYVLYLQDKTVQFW", "assay": "PigW assay", "format": "biochemical"}},
  "data": [
    {"compound": "Nc1ncccc1-c1cc(Cc2ccc(Cc3ccco3)cc2)no1", "note": "[Compound 8d]", "values": [
      {"measurement": "half-life", "setting": "[1]", "result": "~3", "unit": "min"}
    ]},
    {"compound": "Nc1ncccc1-c1cc(Cc2ccc(Cc3ccc(F)o3)cc2)no1", "note": "[Compound 8e]", "values": [
      {"measurement": "half-life", "setting": "[1]", "result": 14, "unit": "min"}
    ]},
    {"compound": "Nc1ncccc1-c1cc(Cc2ccc(CNCc3ccn[nH]3)cc2)no1", "note": "[Compound 10b]", "values": [
      {"measurement": "antifungal activity (in words)", "setting": "[2]", "result": "inactive"}
    ]},
    {"compound": "Cc1nccc(NCc2ccc(Cc3cc(-c4cccnc4N)on3)cc2)n1", "note": "[Compound 11b]", "values": [
      {"measurement": "antifungal activity (in words)", "setting": "[2]", "result": "inactive"}
    ]},
    {"compound": "Nc1ncccc1-c1cc(Cc2ccc(Oc3ccccn3)cc2)no1", "note": "[Compound 12b]", "values": [
      {"measurement": "HepG2 cytotoxicity (in words)", "setting": "[3]", "result": "significant liability"}
    ]},
    {"compound": "Cc1occc1COc1ccc(Cc2cc(-c3cccnc3N)on2)cn1", "note": "[Compound 13k]", "values": [
      {"measurement": "fold weaker antifungal activity compared to the unsubstituted analog 13j", "setting": "[2]; ortho-methyl group, vs 13j", "result": "about 100 fold"}
    ]},
    {"compound": "Nc1ncccc1-c1cc(Cc2ccc(OCc3cccc(Cl)c3)nc2)no1", "note": "[Compound 13l]", "values": [
      {"measurement": "half-life", "setting": "[1]", "result": 68.2, "unit": "min"},
      {"measurement": "activity against the human homolog PigW (in words)", "setting": "[4]", "result": "significant activity"}
    ]}
  ]
}
